Experimental data reported in patent US20200222418A1, “USE OF PHENOTHIAZINE DERIVATIVE IN THE TREATMENT OF INFECTION CAUSED BY BACTERIA CARRYING TYPE IV PILI” (priority 2017, published 2020).

Assays:
[1] = system: Nm2C4.3 microcolonies on HBMEC, human bone marrow endothelial cell line; test: Dispersion of meningococcal microcolonies on HBMEC (vascular colonisation index); assay type: cell-based, Neisseria meningitidis; settings: 30 min, Trifluoperazine 10-40 μM, Gentamicin 150 μg/ml, Cefotaxim 20 μg/ml
Procedure: Human […] microvascular endothelial cells (HBMEC) were infected with Nm2C4.3 for 1 h 30, treated with Trifluoperazine (10-40 μM) for 30 minutes, before fixation and immunofluorescence analysis using anti-Nm2C4.3 antibody and Alexa Fluor 633 Phalloidin. (A) Representative fluorescence microscopy showing bacterial colony (white dots) formed at the surface of the endothelial cells. (B) Quantification of the bacterial colonization was performed using Image J software.
HBMEC, a human endothelial cell line isolated from […] capillaries (Schweitzer et al., 1997) were grown in Dulbecco's Modified Eagle Medium (DMEM) 4.5 g/L-Glutamax (ThermoFischer) 10% FBS. Cells were grown on Thermanox coverslips coated with gelatin 2% (BD Difco #214340) for 2 days to reach confluency. Cells were then infected with a suspension of Nm2C4.3 (˜10^7 CFU/ml) in DMEM/FBS during 30 minutes to allow bacterial adhesion. Cells were then washed three times with medium to remove non-adherent bacteria and infection was pursued for 1 h 30: adherent bacteria grew at the endothelial cell surface and formed micro-colonies. Trifluoperazine was then added to obtain final concentrations of 10, 20, 30 and 40 μM. After incubation for 30 minutes, cells were washed and fixed in 4% Paraformaldehyde for 10 min, washed three times with PBS, and permeabilized with 0.1% Triton X-100 in PBS for 10 min. Cells were blocked for 30 min with 3% BSA in PBS and were incubated for 2 h with the primary antibodies (Rabbit polyclonal anti-Nm2C4.3 strain, kindly provided by Dr X. Nassif, INEM, Paris). After three washes with PBS, cells were incubated for 1 h with […] anti-rabbit IgG (Jackson ImmunoResearch Laboratories), together with Alexa Fluor 633 Phalloidin (Thermofischer) and DAPI ([…], Sigma Aldrich) to stain Actin and nuclei, respectively. Labelled preparations were mounted in Glycergel media (DAKO) and image acquisitions were performed with a DM16000 microscope (Leica, X40). Quantification was done with ImageJ software (NIH). […]

[2] = system: N. meningitidis 2C4.3 isogenic derivative mutant PilT; test: Aggregation of PilT mutant in suspension (phase-contrast video microscopy); assay type: cell-based, Neisseria meningitidis; settings: 50 μM
Procedure: N. meningitidis 2C4.3 wild type strain and the isogenic derivative mutant PilT ([…]PiIT) were grown in liquid culture at 10^7 CFU/ml for 2 h to form bacterial aggregates and then treated with 50 μM Trifluoperazine. Time lapse phase-contrast video microscopy was performed to visualize the effect on bacterial aggregates over time. Images were taken at the indicated time points of the video.
(§1) N. meninigitidis 2C4.3 strain and the isogenic derivative mutant PilT, where the pilT gene was interrupted by an erythromycin-resistance cassette (Pujol et al., 1999), were grown in suspension in DMEM medium supplemented with 10% heat-inactivated fetal calf serum. PilT belongs to a highly conserved protein family homologous to AAA-type motor proteins and is proposed to cause the retraction of type IV pili by disassembling the pilin subunits at the base of the fiber (Morand et al., 2004). After 2 h of growth, Trifluoperazine (or control vehicle) was added at 50 μM for 20 min. The effect on bacterial aggregates were visualized over time using a phase-contrast microscope or the bacterial suspensions were fixed in 4% Paraformaldehyde for 10 min, centrifuged at 1000 rpm for 5 minutes and the bacterial pellets washed in PBS. After negative staining with 1% phosphotungstic acid, bacteria were analysed by transmission electron microscopy, using a JEOL 1011 microscope.

[3] = system: N. meningitidis 2C4.3 PilT mutant type IV pili; test: Surface expression of type IV pili by transmission electron microscopy, PilT mutant; assay type: cell-based, Neisseria meningitidis; settings: 50 μM
Procedure: N. meningitidis 2C4.3 wild type strain and the isogenic derivative mutant PilT ([…]PiIT) were grown in liquid culture at 10^7 CFU/ml for 2 h to form bacterial aggregates and then treated with 50 μM Trifluoperazine for 15 minutes before analysis by transmission electron microscopy. Arrows point at bundles of type IV pili expressed at the bacterial surface.
as §1

[4] = system: Nm2C4.3 microcolonies on HCMEC/D3 human brain endothelial cell line; test: Dispersion of meningococcal microcolonies on human brain endothelial cells; assay type: cell-based, Neisseria meningitidis; settings: 10-40 μM, 30 min
Procedure: A. HBMEC were infected with Nm2C4.3 for 1 h 30, treated with Trifluoperazine (10-40 μM) for 30 minutes, before fixation and immunofluorescence analysis using anti-Nm2C4.3 antibody and Alexa Fluor 633 Phalloidin. B. Quantification of the bacterial colonization was performed using Image J software.
HCMEC/D3, a well-established human brain endothelial cell line (Weksler et al, 2013) was grown in EBM-2 basal medium (Lonza, Walkersville, Md., USA) supplemented with 5% Fetal Bovine Serum “Gold”, 10 mM HEPES (PM Laboratories GmbH, Pasching, Austria), 1% Penicillin-Streptomycin, 1% chemically defined lipid concentrate (Invitrogen Ltd, Paisley, UK), 1.4 μM hydrocortisone, 5 μg·ml^−1 ascorbic acid and 1 ng·ml^−1 bFGF (Sigma-Aldrich, St. Louis, Mo.). Cells were grown on Thermanox coverslips coated with rat collagen I for 4 days at 37° C. in a humidified incubator in 5% CO2. Cells were then infected with a suspension of Nm2C4.3 (˜10^7 CFU/ml) in EBM2/FBS during 30 minutes to allow bacterial adhesion. Cells were then washed three times with medium to remove non-adherent bacteria and infection was pursued for 1 h 30: adherent bacteria grew at the endothelial cell surface and formed micro-colonies. Trifluoperazine was then added to obtain final concentrations of 10, 20, 30 and 40 μM. […] Quantification was done with ImageJ software (NIH). […]

[5] = system: Nm2C4.3 colonization of human brain vessels; parameters: species or system Neisseria meningitidis; settings: 40 μM for 30 min
Procedure: A. Immunofluorescence analysis of CD31 (green), N. meningitidis colonies (red) and nucleus (blue) in the cortical region of serial brain sections from the same donor infected with Nm2C4.3 wild-type strain for 1 h, then treated with Trifluoperazine (40 μM for 30 min) or PBS alone, as a control. Scale bars, 20 μm. Images are representative of 2 different human brain sections. B. Mean±s.e.m. of the vascular colonization index. Analysis of 50 sections per brain section, n=2 sections per condition. ***P<0.001, one-way ANOVA.
In situ infection of fresh human brain sections was performed as described previously (Bernard et al, 2014). […] Adherent meningococci were detected by immunofluorescence analysis: brain sections were incubated with the following primary antibodies for 2 h in PBS/BSA 0.1%: monoclonal anti-human CD31/PECAM-1 mouse monoclonal antibody (clone HEC7, ABCAM, ab119339) and a rabbit polyclonal serum anti-Nm 2C4.3 strain (1:3000). […] Entire samples were scanned using a Lamina (Perkin Helmer) and were further analysed using confocal microscopy (spinning disk Leica, 63x). Quantification analysis of the images (n=50 per section) was performed using ImageJ software (NIH). […]

[6] = system: meningococcal colonization of the human dermal vasculature; test: In vivo meningococcal infection of mice engrafted with human skin

Row | SMILES | dispersion of compact meningococcal microcolonies established at the endothelial cell surface [1] | effect on aggregation of PilT mutant strain [2] | surface expression of type IV pili of PilT mutant [3] | dispersion of meningococcal microcolonies at the surface of human brain endothelial cells [4] | dispersal of meningococcal microcolonies in infected brain sections [5] | colonization of the human dermal vasculature [6] | incidence of vascular alteration [6] | signs of intravascular coagulation [6] | hallmark of vascular inflammation ([6]; alone or in combination with cefotaxime)
1 | CN[C@@H]1[C@@H](O)C(O[C@@H]2[C@@H](O)[C@H](O[C@H]3O[C@H]([C@@H](C)NC)CC[C@H]3N)[C@@H](N)C[C@H]2N)OC[C@]1(C)O (stereo partly drawn) [Gentamicin, (3R,4R,5R)-2-{[(1S,2S,3R,4S,6R)-4,6-diamino-3-{[(2R,3R,6S)-3-amino-6-[(1R)-1-(methylamino)ethyl]oxan-2-yl]oxy}-2-hydroxycyclohexyl]oxy}-5-methyl-4-(methylamino)oxane-3,5-diol] | poorly induced the dispersion | – | – | – | – | – | – | – | –
2 | CN1CCN(CCCN2c3ccccc3Sc3ccc(C(F)(F)F)cc32)CC1 [Trifluoperazine] | induced their dispersion | had no effect | did not affect | induced their dispersion | induced the dispersal | prevents the massive colonization | reduces incidence of vascular alteration | reduces the signs of intravascular coagulation | drastically reduced
